Test [1] addresses Acetylcholinesterase (Homo sapiens, UniProt P22303).
Description: Inhibition of human recombinant AChE using acetylthiocholine as substrate
Test [2] deals with Cholinesterase (Homo sapiens, UniProt P06276).
Description: Inhibition of human recombinant BChE using acetylthiocholine as substrate
In test [3] the target is Beta-secretase 1 (Homo sapiens, UniProt P56817).

We go through 15 compounds from ChEMBL document CHEMBL2157925, “Design, synthesis, and bioevaluation of benzamides: novel acetylcholinesterase inhibitors with multi-functions on butylcholinesterase, Aβ aggregation, and β-secretase” (Bioorg Med Chem, 2012).

Chain of Cholinesterase (P06276 whole entry): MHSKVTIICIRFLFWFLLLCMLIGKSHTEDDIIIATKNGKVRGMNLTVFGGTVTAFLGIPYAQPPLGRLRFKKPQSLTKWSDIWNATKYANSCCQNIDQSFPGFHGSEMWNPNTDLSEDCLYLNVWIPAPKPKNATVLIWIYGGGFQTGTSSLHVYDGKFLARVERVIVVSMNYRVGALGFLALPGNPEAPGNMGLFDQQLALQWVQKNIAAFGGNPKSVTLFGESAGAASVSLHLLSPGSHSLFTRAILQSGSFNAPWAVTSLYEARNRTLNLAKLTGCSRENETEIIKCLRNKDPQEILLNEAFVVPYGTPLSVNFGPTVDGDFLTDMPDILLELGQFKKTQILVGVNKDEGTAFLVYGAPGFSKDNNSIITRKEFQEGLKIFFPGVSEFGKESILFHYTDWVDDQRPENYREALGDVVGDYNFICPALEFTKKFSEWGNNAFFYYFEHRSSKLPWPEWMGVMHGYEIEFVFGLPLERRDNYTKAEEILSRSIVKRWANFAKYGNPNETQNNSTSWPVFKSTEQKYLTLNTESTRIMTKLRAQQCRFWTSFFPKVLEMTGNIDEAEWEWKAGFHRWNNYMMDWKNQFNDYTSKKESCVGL
Chain of Beta-secretase 1 (P56817 whole entry): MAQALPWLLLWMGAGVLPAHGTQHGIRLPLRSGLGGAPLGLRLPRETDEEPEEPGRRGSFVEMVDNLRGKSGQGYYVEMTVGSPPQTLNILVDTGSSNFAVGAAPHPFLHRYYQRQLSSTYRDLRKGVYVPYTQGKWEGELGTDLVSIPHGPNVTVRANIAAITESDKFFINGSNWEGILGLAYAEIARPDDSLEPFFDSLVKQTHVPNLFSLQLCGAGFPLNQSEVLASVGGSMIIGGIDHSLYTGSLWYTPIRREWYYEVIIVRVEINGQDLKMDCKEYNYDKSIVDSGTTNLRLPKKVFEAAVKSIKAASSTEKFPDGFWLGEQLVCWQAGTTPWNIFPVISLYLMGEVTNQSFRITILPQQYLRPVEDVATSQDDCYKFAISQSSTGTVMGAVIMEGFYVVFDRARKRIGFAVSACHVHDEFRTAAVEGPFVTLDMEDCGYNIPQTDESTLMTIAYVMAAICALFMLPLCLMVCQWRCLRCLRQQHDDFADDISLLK
Chain of Acetylcholinesterase (P22303 whole entry): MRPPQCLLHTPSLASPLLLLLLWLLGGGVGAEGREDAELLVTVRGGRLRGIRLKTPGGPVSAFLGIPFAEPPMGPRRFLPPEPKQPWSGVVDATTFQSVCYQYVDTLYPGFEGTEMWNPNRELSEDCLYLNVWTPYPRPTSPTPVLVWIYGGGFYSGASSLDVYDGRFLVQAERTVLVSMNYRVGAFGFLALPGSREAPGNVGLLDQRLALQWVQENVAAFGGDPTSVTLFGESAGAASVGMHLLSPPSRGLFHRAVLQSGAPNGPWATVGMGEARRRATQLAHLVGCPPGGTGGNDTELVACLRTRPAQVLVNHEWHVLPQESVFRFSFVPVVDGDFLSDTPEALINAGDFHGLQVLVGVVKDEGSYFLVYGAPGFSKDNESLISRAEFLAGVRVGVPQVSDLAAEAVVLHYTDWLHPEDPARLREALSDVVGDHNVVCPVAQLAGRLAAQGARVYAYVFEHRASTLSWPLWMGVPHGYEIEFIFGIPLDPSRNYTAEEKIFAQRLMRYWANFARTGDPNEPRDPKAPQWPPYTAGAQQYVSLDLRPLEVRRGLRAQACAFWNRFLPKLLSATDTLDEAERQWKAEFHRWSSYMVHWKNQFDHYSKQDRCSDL

In test [1], `O=C(NCCc1c[nH]c2ccccc12)c1ccc(OCCCCn2c3ccccc3c3ccccc32)cc1` showed a Ki of 1440 nM.
The same measure, in the same setting: next, `O=C(NCCc1c[nH]c2ccccc12)c1ccc(OCCCCn2ccc3ccccc32)cc1`: greater than 10000 nM.
Same read-out and setting: in the case of `O=C(NCCc1c[nH]c2ccccc12)c1ccc(OCCCCOc2cccc3[nH]c4ccccc4c23)cc1` it was greater than 10000 nM.
Still for that read-out and setting: next, `O=C(NCCc1c[nH]c2ccccc12)c1ccc(OCCCCOc2cccc(C(=O)c3ccccc3)c2)cc1`: greater than 10000 nM; `O=C(NCCc1c[nH]c2ccccc12)c1ccc(OCCCCOc2ccc(C(=O)c3ccccc3)cc2)cc1`: greater than 10000 nM.
In turn, `O=C(NCCc1c[nH]c2ccccc12)c1ccc(OCCCCOc2ccc3c(c2)C(=O)c2ccccc2-3)cc1` came in with a Ki in test [1] greater than 10000 nM.
Consider `CN(C)c1cc[n+](CCCCOc2ccc(C(=O)NCCc3c[nH]c4ccccc34)cc2)cc1`, for which the Ki in test [2] came to 2360 nM; in test [1], 198 nM.
The corresponding values for `O=C(NCCc1c[nH]c2ccccc12)c1ccc(OCCCC[n+]2cccc3ccccc32)cc1` are 97 nM and 124 nM.
The corresponding values for `CC(=O)c1ccccc1NC(=O)c1ccc(OCCCC[n+]2cccc3ccccc32)cc1` are 166 nM and 53 nM.
The corresponding values for `CC(=O)c1ccccc1NC(=O)c1ccc(OCCCC[n+]2ccc3ccccc3c2)cc1` are 56 nM and 45.8 nM.
With `CC(=O)c1ccccc1NC(=O)c1ccc(OCCCCC[n+]2ccc3ccccc3c2)cc1`, the values for the Ki in test [2] and in test [1] were 82 nM and 44.7 nM, respectively. This compound yielded an IC50 in test [3] greater than 100 µM.
The corresponding values for `CC(=O)c1ccccc1NC(=O)c1ccc(OCCCCCC[n+]2ccc3ccccc3c2)cc1` are 99 nM, 9.4 nM and greater than 100 µM.
The like results for `CC(=O)c1ccccc1NC(=O)c1ccc(OCCCCC[n+]2cccc3ccccc32)cc1` were, in that order, 55 nM, 6.47 nM and 85 µM.
In the case of `CC(=O)c1ccccc1NC(=O)c1ccc(OCCCCC[n+]2ccccc2)cc1`, the Ki in test [2] worked out at 93 nM; in test [1], 81 nM. Moreover, inhibition in test [3] was half-maximal at 0.31 µM (IC50).
Regarding `CC(=O)c1ccccc1NC(=O)c1ccc(OCCCCCC[n+]2ccccc2)cc1`, the Ki in test [2] worked out at 66 nM; in test [1], 47 nM.

By Ki is commonly meant a measure of affinity in units of concentration, obtained from inhibition or displacement. Low values mean a stronger hold on the target, high ones a looser hold on the target. Usually IC50 stands for the midpoint of a concentration-inhibition curve. A high value points to weaker potency in that assay.
